Assay results as given in patent US9758538B2, “Pyrimidine derivatives” (PFIZER INC., priority 2015, dated 2017).

molecular target: truncated PI3Kα (p110α/iSH2 p85α), PI3KA_Act (Homo sapiens (Human), UniProt P42336); assay: PI3Kα biochemical kinase assay, fluorescence polarization format (PI3KA_Act); details: 0.5 nM p110α/iSH2 p85, 1 mM ATP, 30 μM PIP2, 15-min preincubation; Morrison equation fit; read-out: PI3KA_Act Ki
Procedure: Enzyme Production for Biochemical Assay: p110α-iSH2 p85α Complex (Full Length p110α and p85α iSH2)(“PI3KA Act”)
Gene encoding p110α subunit was subcloned into polyhedrine promoter while gene encoding p85α niSH2 domains was subcloned into p10 promoter. […] Recombinant baculovirus was generated using Bac-to-Bac protocol (Life Technologies, Carlsbad, Calif.). Large scale expression was conducted in Sf21 (Life Technologies, Carlsbad, Calif.) cells at a multiplicity of infection (“MOI”)=1 for 48 hours. Cells were lyzed in 50 mM Tris pH 8.0, 250 mM NaCl, 5% glycerol, 0.25 mM TCEP, and 20 mM imidazole. The p110α-niSH2 p85α complex was purified from clarified supernatant using Immobilized Metalo Affinity Chromatography (“IMAC”). The protein was eluted from the column using 50 mM Tris pH 8.0, 200 mM NaCl, 0.25 mM TCEP, and 200 mM imidazole. Following elution p110α-niSH2 p85α complex was dialyzed against 4 liters of 50 mM Tris pH 8.0, 200 mM NaCl, 0.25 mM TCEP, and 40 mM imidazole in the presence of PreScission Protease (1:70 molar ratio of Protease to Protein) and TEV protease (1:40 molar ratio protease to protein) for 16 hours at 4° C. The protein was further purified using reverse IMAC to remove cleaved histidine tag and contaminants captured during initial IMAC purification. The mixture of p110α-iSH2 p85α complex and cleaved nSH2 was recovered in reverse IMAC 40 mM imidazole flow through and 60 mM imidazole wash fractions. Those fractions were pulled together and loaded on Superdex 200 26/60 SEC column equilibrated in 25 mM Tris, pH 8.0, 100 mM NaCl, 2% glycerol, and 2 mM TCEP.
The enzymatic reactions were conducted in 50 μL volumes in 96-well plates. […] The reactions were incubated for 30 min at room temperature, stopped with EDTA pH 8 (10 mM final concentration). […] The plate was shaken for 30 minutes and fluorescence polarization values were measured on an LJL Analyst HT plate reader (Molecular Devices, Sunnyvale, Calif.).

Sequence of truncated PI3Kα (p110α/iSH2 p85α), PI3KA_Act (P42336 whole entry, the tested form may be a part): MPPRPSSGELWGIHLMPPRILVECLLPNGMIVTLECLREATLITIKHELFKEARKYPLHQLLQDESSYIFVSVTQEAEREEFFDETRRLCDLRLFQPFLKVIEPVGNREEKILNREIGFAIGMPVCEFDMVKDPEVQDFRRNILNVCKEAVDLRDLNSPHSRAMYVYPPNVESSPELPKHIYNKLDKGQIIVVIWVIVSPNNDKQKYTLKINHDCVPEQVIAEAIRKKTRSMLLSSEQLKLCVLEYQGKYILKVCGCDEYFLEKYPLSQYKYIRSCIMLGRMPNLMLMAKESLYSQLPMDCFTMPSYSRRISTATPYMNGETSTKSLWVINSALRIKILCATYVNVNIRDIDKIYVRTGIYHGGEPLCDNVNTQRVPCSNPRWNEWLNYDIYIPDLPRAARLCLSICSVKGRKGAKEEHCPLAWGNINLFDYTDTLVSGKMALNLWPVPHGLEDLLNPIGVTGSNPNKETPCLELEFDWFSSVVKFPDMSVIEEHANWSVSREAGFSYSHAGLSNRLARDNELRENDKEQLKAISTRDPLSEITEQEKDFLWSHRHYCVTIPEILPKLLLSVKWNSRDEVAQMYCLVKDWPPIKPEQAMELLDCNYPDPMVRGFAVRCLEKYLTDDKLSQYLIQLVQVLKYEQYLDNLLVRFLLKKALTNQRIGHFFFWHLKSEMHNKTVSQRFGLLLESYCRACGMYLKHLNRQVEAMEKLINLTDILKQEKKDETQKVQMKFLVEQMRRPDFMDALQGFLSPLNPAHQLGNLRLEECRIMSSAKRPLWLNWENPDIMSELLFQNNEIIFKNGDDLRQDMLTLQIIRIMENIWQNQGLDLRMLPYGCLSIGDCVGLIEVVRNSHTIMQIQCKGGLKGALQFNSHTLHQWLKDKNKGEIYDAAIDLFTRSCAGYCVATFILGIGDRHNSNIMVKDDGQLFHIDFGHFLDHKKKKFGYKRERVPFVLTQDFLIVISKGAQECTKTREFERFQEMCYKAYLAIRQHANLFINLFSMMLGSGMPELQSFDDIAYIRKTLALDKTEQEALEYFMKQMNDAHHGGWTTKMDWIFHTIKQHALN

| SMILES | Ki [nM] |
| --- | --- |
| CC(C)(C)OC(=O)N1CCC(CO)(Oc2cc(-c3cnc(N)nc3)nc(N3CCOCC3)n2)C1 (racemic) [Example 7, tert-butyl 3-{[2′-amino-2-(morpholin-4-yl)-4,5′-bipyrimidin-6-yl]oxy}-3-(hydroxymethyl)pyrrolidine-1-carboxylate] | 0.058 |
| CC(C)(C)OC(=O)N1CCC(CO)(Oc2cc(-c3cnc(N)nc3)nc(N3CCOCC3)n2)C1 (single isomer, unassigned) [Example 8, tert-butyl 3-{[2′-amino-2-(morpholin-4-yl)-4,5′-bipyrimidin-6-yl]oxy}-3-(hydroxymethyl)pyrrolidine-1-carboxylate] | < 0.018 |
| CC(C)(C)OC(=O)N1CCC(CO)(Oc2cc(-c3cnc(N)nc3)nc(N3CCOCC3)n2)C1 (single isomer, unassigned) [Example 9, tert-butyl 3-{[2′-amino-2-(morpholin-4-yl)-4,5′-bipyrimidin-6-yl]oxy}-3-(hydroxymethyl)pyrrolidine-1-carboxylate] | 0.492 |
| CN(c1cc(-c2cnc(N)nc2)nc(N2CCOCC2)n1)C1(CO)CCN(C(=O)OC(C)(C)C)C1 (single isomer, unassigned) [Example 26, tert-butyl 3-{[2′-amino-2-(morpholin-4-yl)-4,5′-bipyrimidin-6-yl](methyl)amino}-3-(hydroxymethyl)pyrrolidine-1-carboxylate] | < 0.018 |
| CN(c1cc(-c2cnc(N)nc2)nc(N2CCOCC2)n1)C1(CO)CCN(C(=O)OC(C)(C)C)C1 (single isomer, unassigned) [Example 27, tert-butyl 3-{[2′-amino-2-(morpholin-4-yl)-4,5′-bipyrimidin-6-yl](methyl)amino}-3-(hydroxymethyl)pyrrolidine-1-carboxylate] | 0.717 |
| Nc1ncc(-c2nc(N3CCOCC3)nc(N[C@]3(CO)CCCN(C(=O)C4(F)CC4)C3)c2F)cn1 (single isomer, unassigned) [Example 158] | 0.627 |
| Nc1ncc(-c2nc(N3CCOCC3)nc(N[C@@]3(COP(=O)(O)O)CCN(C(=O)OCC(F)F)C3)c2F)cn1 [Example 3, 2,2-difluoroethyl (3S)-3-{[2′-amino-5-fluoro-2-(morpholin-4-yl)-4,5′-bipyrimidin-6-yl]amino}-3-[(phosphonooxy)methyl]pyrrolidine-1-carboxylate] | 2.61 |
| COC(=O)N1CC[C@](CO)(Nc2nc(-c3cnc(N)nc3)nc(N3CCOCC3)n2)C1 [Example 11, methyl (3S)-3-{[4-(2-aminopyrimidin-5-yl)-6-(morpholin-4-yl)-1,3,5-triazin-2-yl]amino}-3-(hydroxymethyl)pyrrolidine-1-carboxylate] | 0.103 |
| C[C@@]1(Nc2cc(-c3cnc(N)nc3)nc(N3CCOCC3)n2)CCN(S(C)(=O)=O)C1 [Example 12, N˜6˜-[(3R)-3-methyl-1-(methylsulfonyl)pyrrolidin-3-yl]-2-(morpholin-4-yl)-4,5′-bipyrimidine-2′,6-diamine] | 1.29 |
| Nc1ncc(-c2cc(N[C@@]3(CO)CCNC3)nc(N3CCOCC3)n2)cn1 [Example 29, [(3S)-3-{[2′-amino-2-(morpholin-4-yl)-4,5′-bipyrimidin-6-yl]amino}pyrrolidin-3-yl]methanol] | 5.88 |
| Nc1ncc(-c2cc(N[C@]3(CO)CCNC3)nc(N3CCOCC3)n2)cn1 [Example 30, [(3R)-3-{[2′-amino-2-(morpholin-4-yl)-4,5′-bipyrimidin-6-yl]amino}pyrrolidin-3-yl]methanol] | 2.42 |
| CS(=O)(=O)N1CC[C@](CO)(Nc2cc(-c3cnc(N)nc3)nc(N3CCOCC3)n2)C1 [Example 33, [(3S)-3-{[2′-amino-2-(morpholin-4-yl)-4,5′-bipyrimidin-6-yl]amino}-1-(methylsulfonyl)pyrrolidin-3-yl]methanol] | 0.3 |
| COC(=O)N1CC[C@](CO)(Nc2cc(-c3cnc(N)nc3)nc(N3CCOCC3)n2)C1 [Example 34, methyl (3S)-3-{[2′-amino-2-(morpholin-4-yl)-4,5′-bipyrimidin-6-yl]amino}-3-(hydroxymethyl)pyrrolidine-1-carboxylate] | 0.019 |

More lines, now with the values ahead:

| Ki [nM] | SMILES |
| --- | --- |
| 0.03 | COC(=O)N1CCCC(CO)(Nc2cc(-c3cnc(N)nc3)nc(N3CCOCC3)n2)C1 (racemic) [Example 4, methyl 3-{[2′-amino-2-(morpholin-4-yl)-4,5′-bipyrimidin-6-yl]amino}-3-(hydroxymethyl)piperidine-1-carboxylate] |
| < 0.018 | COC(=O)N1CCC[C@](CO)(Nc2cc(-c3cnc(N)nc3)nc(N3CCOCC3)n2)C1 [Example 5, methyl (3S)-3-{[2′-amino-2-(morpholin-4-yl)-4,5′-bipyrimidin-6-yl]amino}-3-(hydroxymethyl)piperidine-1-carboxylate] |
| 0.881 | COC(=O)N1CCC[C@@](CO)(Nc2cc(-c3cnc(N)nc3)nc(N3CCOCC3)n2)C1 [Example 6, methyl (3R)-3-{[2′-amino-2-(morpholin-4-yl)-4,5′-bipyrimidin-6-yl]amino}-3-(hydroxymethyl)piperidine-1-carboxylate] |
| 1.62 | CC(O)[C@]1(Nc2cc(-c3cnc(N)nc3)nc(N3CCOCC3)n2)CCN(C(=O)OC(C)(C)C)C1 (stereo partly drawn) [Example 10, tert-butyl (3S)-3-{[2′-amino-2-(morpholin-4-yl)-4,5′-bipyrimidin-6-yl]amino}-3-(1-hydroxyethyl)pyrrolidine-1-carboxylate] |
| 0.979 | C[C@H]1COCCN1c1nc(N[C@]2(C)CCN(C(=O)OC(C)(C)C)C2)cc(-c2cnc(N)nc2)n1 [Example 15, tert-butyl (3R)-3-({2′-amino-2-[(3S)-3-methylmorpholin-4-yl]-4,5′-bipyrimidin-6-yl}amino)-3-methylpyrrolidine-1-carboxylate] |
| 0.158 | C[C@H]1COCCN1c1nc(N[C@@]2(C)CCN(C(=O)OC(C)(C)C)C2)cc(-c2cnc(N)nc2)n1 [Example 19, tert-butyl (3S)-3-({2′-amino-2-[(3S)-3-methylmorpholin-4-yl]-4,5′-bipyrimidin-6-yl}amino)-3-methylpyrrolidine-1-carboxylate] |
| 0.049 | CN(c1cc(-c2cnc(N)nc2)nc(N2CCOCC2)n1)C1(CO)CCN(C(=O)OC(C)(C)C)C1 (stereo not drawn) [Example 25, tert-butyl 3-{[2′-amino-2-(morpholin-4-yl)-4,5′-bipyrimidin-6-yl](methyl)amino}-3-(hydroxymethyl)pyrrolidine-1-carboxylate] |
| 0.201 | CCC1(Nc2cc(-c3cnc(N)nc3)nc(N3CCOCC3)n2)CCN(C(=O)OC(C)(C)C)C1 (stereo not drawn) [Example 28, tert-butyl 3-{[2′-amino-2-(morpholin-4-yl)-4,5′-bipyrimidin-6-yl]amino}-3-ethylpyrrolidine-1-carboxylate] |
| 2.13 | CC(=O)N1CC[C@@](CO)(Nc2cc(-c3cnc(N)nc3)nc(N3CCOCC3)n2)C1 [Example 31, 1-[(3R)-3-{[2′-amino-2-(morpholin-4-yl)-4,5′-bipyrimidin-6-yl]amino}-3-(hydroxymethyl)pyrrolidin-1-yl]ethanone] |
| 0.771 | CC(=O)N1CC[C@](CO)(Nc2cc(-c3cnc(N)nc3)nc(N3CCOCC3)n2)C1 [Example 32, 1-[(3S)-3-{[2′-amino-2-(morpholin-4-yl)-4,5′-bipyrimidin-6-yl]amino}-3-(hydroxymethyl)pyrrolidin-1-yl]ethanone] |
| < 0.018 | C[C@H]1COCCN1c1nc(N[C@@]2(CO)CCN(C(=O)OC(C)(C)C)C2)cc(-c2cnc(N)nc2)n1 [Example 36, tert-butyl (3S)-3-({2′-amino-2-[(3S)-3-methylmorpholin-4-yl]-4,5′-bipyrimidin-6-yl}amino)-3-(hydroxymethyl)pyrrolidine-1-carboxylate] |
| 0.725 | CC[C@@]1(Nc2cc(-c3cnc(N)nc3)nc(N3CCOCC3)n2)CCN(C(=O)OC(C)(C)C)C1 [Example 37, tert-butyl (3R)-3-{[2′-amino-2-(morpholin-4-yl)-4,5′-bipyrimidin-6-yl]amino}-3-ethylpyrrolidine-1-carboxylate] |
| < 0.018 | CC(C)(C)OC(=O)N1CC[C@](CO)(Nc2nc(N3CCOCC3)nc(-c3cnc(N)nc3)c2F)C1 [Example 38, tert-butyl (3S)-3-{[2′-amino-5-fluoro-2-(morpholin-4-yl)-4,5′-bipyrimidin-6-yl]amino}-3-(hydroxymethyl)pyrrolidine-1-carboxylate] |
| 0.105 | CC(C)(C)OC(=O)N1CC[C@](CO)(Nc2nc(-c3cnc(N)nc3)nc(N3CCOCC3)n2)C1 [Example 39, tert-butyl (3S)-3-{[4-(2-aminopyrimidin-5-yl)-6-(morpholin-4-yl)-1,3,5-triazin-2-yl]amino}-3-(hydroxymethyl)pyrrolidine-1-carboxylate] |
